Measurements reported in article PMC10208570, “Peptidomimetic antibiotics disrupt the lipopolysaccharide transport bridge of drug-resistant Enterobacteriaceae” (Science Advances, 2023).
Converted amounts (≈) assume the structure as drawn. Where a SMILES comes first, the peptide text is derived from it. Bridges are numbered along the chain shown (N, C = ends). [ ]: non-standard residue; d: D form. The star is where a group is joined. Val(Nα-amidino) = CC(C)[C@H](NC(=N)N)C(=O)*; Hyp = O=C(O)[C@@H]1C[C@@H](O)CN1; Pen = CC(C)(S)[C@H](N)C(=O)O; dDab = NCC[C@@H](N)C(=O)O; Dab = NCC[C@H](N)C(=O)O

Assays:
[1] = system: K. pneumoniae ATCC 43816 (parent / WT); experiment: microbe, parasite or virus in culture; settings: ATCC 43816
Method in brief: (§1)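 First, MICs were measured per CLSI. Next, organisms underwent serial passage. Finally, resistant mutants were isolated, their MICs determined, and whole genomes sequenced with bioinformatic analysis.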

[2] = system: E. coli ATCC 25922 (parent / WT); experiment: microbe, parasite or virus in culture; settings: for MIC E. coli ATCC 25922 Parent: CLSI method, parent strain
Method in brief: as §1

[3] = system: E. coli ATCC 25922 LptA Q62L mutant; experiment: microbe, parasite or virus in culture; settings: for MIC E. coli ATCC 25922 Q62L mutant: CLSI method, clone harboring LptA Q62L
Method in brief: as §1

[4] = system: K. pneumoniae NCTC 13443 (NDM-1) (parent / WT); experiment: microbe, parasite or virus in culture; settings: for MIC K. pneumoniae NCTC 13443 (NDM-1) Parent: CLSI method, parent strain
Method in brief: as §1

[5] = system: K. pneumoniae NCTC 13443 (NDM-1) LptA Q62L mutant; experiment: microbe, parasite or virus in culture; settings: for MIC K. pneumoniae NCTC 13443 (NDM-1) Q62L mutant: CLSI method, clone harboring LptA Q62L
Method in brief: as §1

[6] = Tolerability (single day, IV bolus q12h); assay type: in vivo, CD-1 mice; settings: for Tolerability (IV bolus, q12h): mice died: single day
Protocol: Two different study designs were used to determine the potential toxicity of these compounds, when given BID via intravenous bolus (injection) 12 hours apart to CD-1 mice. In the first type of study, male mice were dosed on a single day at three escalating dose levels (three mice per group), while the second type of study male mice (nine mice per group) were dosed for seven consecutive days with the same administration regimen (q12h). […] Detailed clinical observations were conducted up to at least 3 hours after the first daily dosing and up to at least 1 hour after the second daily dosing. In addition, the Irwin battery of tests was used to assess the mice neurobiological and physiological state during the single day study at 30, 60, 120, 180, and 240 min after the first administration. The following parameters were included in the observations: occurrence of abnormal gait, catalepsy, piloerection, abnormal respiration, increase or decrease in spontaneous activity, spontaneous activity following audible stimuli (tapping on side of cage), touch response, and body tonus. Any additional symptoms observed were also reported.

in vitro = assay type: cell-based; settings: human
Protocol: The cytotoxicity of compounds was determined by determining the number of viable cells using the Sigma Cell Counting Kit-8 (WST-8). HeLa cells were incubated at 37°C and 5% CO2 for 24 hours, after which the medium was replaced with fresh medium containing dilutions of compounds. […]

human red blood cells = experiment: Haemolysis; assay type: cell-based; settings: PBS-washed human red blood cells; 1 h at 200 mg/liter, 37°C; OD 540 nm; versus 100% lysis control 2.5% Triton X-100; biological replicates
Protocol: To test their hemolytic potential, compounds were incubated in the presence of phosphate-buffered saline (PBS)–washed human red blood cells. After 1-hour incubation at 200 mg/liter and 37°C, the samples were centrifuged (3220g), the supernatants were diluted in Dulbecco’s PBS, and optical density at 540 nm was determined. The hemolysis induced by the compound was calculated versus a 100% lysis control prepared with 2.5% Triton X-100 (table S4A).

[7] = system: Klebsiella pneumoniae NCTC 13443 LptA I36S mutant; experiment: microbe, parasite or virus in culture; settings: Table S9 panel
Method in brief: as §1

[8] = system: Klebsiella pneumoniae NCTC 13443 LpxC, LpxD mutant; experiment: microbe, parasite or virus in culture; settings: Table S9 panel; other mutation
Method in brief: as §1

[9] = system: K. pneumoniae ATCC 43816 LptA Q62L mutant; experiment: microbe, parasite or virus in culture; settings: Table S9 panel
Method in brief: as §1

[10] = system: Klebsiella pneumoniae NCTC 13443 YejM mutant; experiment: microbe, parasite or virus in culture; settings: Table S9 panel; other mutation
Method in brief: as §1

[11] = system: Klebsiella pneumoniae ATCC 43816 LptA I36N mutant; experiment: microbe, parasite or virus in culture; settings: Table S9 panel
Method in brief: as §1

[12] = system: Escherichia coli ATCC 25922 KdsD mutant; experiment: microbe, parasite or virus in culture; settings: Table S9 panel; other mutation
Method in brief: as §1

[13] = system: Escherichia coli ATCC 25922 LptA E84D mutant; experiment: microbe, parasite or virus in culture; settings: Table S9 panel
Method in brief: as §1

[14] = system: Klebsiella pneumoniae ATCC 43816 LapB mutant; experiment: microbe, parasite or virus in culture; settings: Table S9 panel; other mutation
Method in brief: as §1

[15] = system: Klebsiella pneumoniae ATCC 43816 LptA I36S mutant; experiment: microbe, parasite or virus in culture; settings: Table S9 panel
Method in brief: as §1

[16] = system: Klebsiella pneumoniae ATCC 43816 PglJ, PhnJ, ThiH mutant; experiment: microbe, parasite or virus in culture; settings: Table S9 panel; other mutation
Method in brief: as §1

[17] = system: Klebsiella pneumoniae ATCC 43816 LptA L116Q mutant; experiment: microbe, parasite or virus in culture; settings: Table S9 panel
Method in brief: as §1

LptAmD33A = target: T1, LptAmD33A (Escherichia coli, UniProt P0ADV1, D33A); experiment: FP indirect (competition) binding assay; parameters: species or system E. coli
T1 construct: His6-GB1 (N, cleaved yes); made in house; host or cells: E. coli BL21 (DE3)
T1 sequence (P0ADV1 28-159 D33A): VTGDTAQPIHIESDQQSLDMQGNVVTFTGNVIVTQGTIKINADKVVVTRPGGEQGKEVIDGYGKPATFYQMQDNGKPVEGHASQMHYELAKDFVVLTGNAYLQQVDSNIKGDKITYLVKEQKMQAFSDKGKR
Protocol: (§2) Protein stocks were purified and concentrated in buffer 1 [50 mM Na-Pi (pH 7) and 150 mM NaCl] and, if necessary, diluted to desired concentrations using buffer 2 [50 mM Na-Pi (pH 7), 150 mM NaCl, and 0.05% Tween 20]. Peptide stocks and fluorescently labeled peptide stocks were made in buffer 2. Every serial dilution consisted of 24 wells, the first well with the highest concentrate and the last well (well 24) with the lowest. First, 50 μl of buffer 2 was added to the wells 2 to 24 of each serial dilution. Then, 100 μl of concentrated unlabeled peptide/protein in their respective buffers was added to the first well. Fifty microliters were taken from the first well and added to the second well for a 1:1 serial dilution and continued for the 24 wells. […] Plates were covered with adhesive seals and left to incubate overnight at 4°C before FP measurements the next day. Anisotropy was measured using the Tecan Safire2 plate reader using a 10-nm bandwidth and setting the excitation and emission wavelengths to 635 and 670 nm, respectively. The G-factor (G) was also determined empirically as 1.094 for the instrument and included in all the anisotropy calculations.
(§3) For the indirect binding assays, r was calculated in the same manner as the direct binding assays. […] The control was subtracted from r to yield r′. Data were fit to a sigmoidal interpolation model on GraphPad Prism 9, and an IC50 was generated for each unlabeled peptide or protein measured.

LptAmQ62L, D33A = target: T2, LptAmQ62L, D33A (Escherichia coli, UniProt P0ADV1, D33A/Q62L); experiment: FP indirect (competition) binding assay; parameters: species or system E. coli
T2 construct: His6-GB1 (N, cleaved yes); made in house; host or cells: E. coli BL21 (DE3)
T2 sequence (P0ADV1 28-159 D33A/Q62L): as the sequence (P0ADV1 28-159 D33A) above, with Q35L counted along it
Protocol: as §2, §3

CC[C@H](C)[C@H](NC(=O)[C@@H]1C[C@@H](O)CN1C(=O)[C@@H](N)C(C)C)C(=O)N[C@H](C(=O)N[C@@H](Cc1ccc(O)cc1)C(=O)N[C@@H]1C(=O)N[C@@H](CC(N)=O)C(=O)N[C@@H](CCCNC(=N)N)C(=O)N[C@@H](CCN)C(=O)N[C@@H]([C@@H](C)O)C(=O)N[C@H](CCN)C(=O)N[C@@H](CCCCN)C(=O)N[C@H](C(=O)N[C@@H](CCN)C(=O)N[C@@H](CCCNC(=N)N)C(=O)N[C@@H](Cc2ccc(O)cc2)C(=O)O)CSSC1(C)C)[C@@H](C)O [Compound 6] (H-V[Hyp]ITY[Pen]NR[Dab]T[dDab]KC[Dab]RY-OH; disulfide 6-13)
MIC K. pneumoniae ATCC 43816 Parent [1]: 0.25 micrograms per milliliter
MIC E. coli ATCC 25922 Parent [2]: 0.125 micrograms per milliliter
MIC E. coli ATCC 25922 Q62L mutant [3]: 2 micrograms per milliliter
MIC K. pneumoniae NCTC 13443 (NDM-1) Parent [4]: 2 micrograms per milliliter
MIC K. pneumoniae NCTC 13443 (NDM-1) Q62L mutant [5]: >8 micrograms per milliliter
Tolerability (IV bolus, q12h): mice died ([6]; at 40 mg/kg/day q12h): 0/3
IC50 at 48 h (in vitro): 1160 µM
Haemolysis % at 0.2 g/L (human red blood cells): 0%

CC[C@H](C)[C@H](NC(=O)[C@@H]1C[C@@H](O)CN1C(=O)[C@@H](NC(=N)N)C(C)C)C(=O)N[C@H](C(=O)N[C@@H](Cc1ccc(O)cc1)C(=O)N[C@@H]1C(=O)N[C@@H](CC(N)=O)C(=O)N[C@@H](CCCNC(=N)N)C(=O)N[C@@H](CCN)C(=O)N[C@@H]([C@@H](C)O)C(=O)N[C@H](CCN)C(=O)N[C@@H](CCCCN)C(=O)N[C@H](C(=O)N[C@@H](CCN)C(=O)N[C@@H](CCCNC(=N)N)C(=O)N[C@@H](Cc2ccc(O)cc2)C(=O)O)CSSC1(C)C)[C@@H](C)O [Compound 7] ({Val(Nα-amidino)}-[Hyp]ITY[Pen]NR[Dab]T[dDab]KC[Dab]RY-OH; disulfide 5-12)
MIC Klebsiella pneumoniae NCTC 13443 LptA I36S (2x) [7]: 8 µg/mL (≈ 4 µM)
MIC Klebsiella pneumoniae NCTC 13443 LpxC, LpxD (1x) [8]: 1 µg/mL (≈ 0.5 µM)
MIC Klebsiella pneumoniae ATCC 43816 LptA Q62L (4x) [9]: 8 µg/mL (≈ 4 µM)
MIC K. pneumoniae ATCC 43816 Parent [1]: 0.125 micrograms per milliliter
MIC Klebsiella pneumoniae ATCC 43816 WT [1]: 0.25 µg/mL (≈ 0.125 µM)
MIC Klebsiella pneumoniae NCTC 13443 YejM (1x) [10]: 2 µg/mL (≈ 0.999 µM)
MIC Klebsiella pneumoniae ATCC 43816 LptA I36N (1x) [11]: 2 µg/mL (≈ 0.999 µM)
MIC Escherichia coli ATCC 25922 KdsD (2x) [12]: 0.5 µg/mL (≈ 0.25 µM)
MIC E. coli ATCC 25922 Parent [2]: 0.063 micrograms per milliliter
MIC Escherichia coli ATCC 25922 WT ([2]; Table S9 panel, WT): 0.125 µg/mL (≈ 0.0625 µM)
MIC E. coli ATCC 25922 Q62L mutant [3]: 4 micrograms per milliliter
MIC Escherichia coli ATCC 25922 LptA Q62L (7x) ([3]; Table S9 panel): 2 µg/mL (≈ 0.999 µM)
MIC K. pneumoniae NCTC 13443 (NDM-1) Parent [4]: 0.5 micrograms per milliliter
MIC Klebsiella pneumoniae NCTC 13443 WT ([4]; Table S9 panel, WT): 1 µg/mL (≈ 0.5 µM)
MIC K. pneumoniae NCTC 13443 (NDM-1) Q62L mutant [5]: >8 micrograms per milliliter
MIC Klebsiella pneumoniae NCTC 13443 LptA Q62L (5x) ([5]; Table S9 panel): > 16 µg/mL
MIC Escherichia coli ATCC 25922 LptA E84D (1x) [13]: 1 µg/mL (≈ 0.5 µM)
MIC Klebsiella pneumoniae ATCC 43816 LapB (1x) [14]: 0.5 µg/mL (≈ 0.25 µM)
MIC Klebsiella pneumoniae ATCC 43816 LptA I36S (1x) [15]: 2 µg/mL (≈ 0.999 µM)
MIC Klebsiella pneumoniae ATCC 43816 PglJ, PhnJ, ThiH (1x) [16]: 0.5 µg/mL (≈ 0.25 µM)
MIC Klebsiella pneumoniae ATCC 43816 LptA L116Q (1x) [17]: 2 µg/mL (≈ 0.999 µM)
Tolerability (IV bolus, q12h): mice died ([6]; at 30 mg/kg/day q12h): 0/3
Tolerated dose, intravenous BID ([6]; mice, intravenous, twice a day (q12h)): up to 30 mg/kg per day
IC50 at 48 h (in vitro): 456 µM
IC50 (LptAmD33A): 0.0323 ± 0.0034 µM
Ki (LptAmD33A): 0.0234 ± 0.0025 µM
IC50 (LptAmQ62L, D33A): 0.0232 ± 0.01 µM
Ki (LptAmQ62L, D33A): 0.017 ± 0.0073 µM
Haemolysis % at 0.2 g/L (human red blood cells): 0%
